From the NIST ThermoML archive (doi:10.1016/j.jct.2011.10.002)
± gives the expanded uncertainty stated by the source.

Conditions: 298.15 K, 101.33 kPa, Liquid; for speed of sound: Sing-around technique in a fixed-path interferometer; for mass density: Vibrating tube method

Structure (SMILES) | speed of sound | mass density
Cc1ccncc1 [4-methylpyridine] | 1431.5 ± 1.2 m/s | 950.179 ± 0.23 kg/m3
Cc1ccccc1N [2-methylaniline] | 1602.6 ± 1.3 m/s | 994.351 ± 0.23 kg/m3
C1CCOCC1 [tetrahydropyran] | 1269.9 ± 2.1 m/s | 879.136 ± 0.7 kg/m3
Cc1ccccn1 [2-methylpyridine] | 1380.1 ± 2.1 m/s | 939.802 ± 0.77 kg/m3
Cc1cccnc1 [3-methylpyridine] | 1424 ± 1.2 m/s | 952.002 ± 0.23 kg/m3
